The target of experiment [1] is T1, 14 kD lectins (HL-60 cells, placenta, recombinant E. coli) (Homo sapiens, UniProt P09382).
T1 construct: the N-terminal methionine of the HL-60 lectin appears to be cleaved, and the remaining protein can be acetylated; secretion signal (only the E. coli-made preparation); made in house; host or cells: three preparations tested side by side: purified from HL-60 cells, purified from human placenta tissue, recombinant from E. coli (secretion signal)
The experiment can be described thus: Inhibition by competing sugars of lectin-induced agglutination of trypsinized rabbit erythrocytes. Format: biochemical. Conditions: FIG. 5. The source says:
(§1) Biological activity of the inventive 14 kD lectins 1) isolated from HL-60 cells, 2) isolated from placenta tissue or 3) prepared recombinantly from E. coli cells transfected with lectin cDNA operably linked to a secretion signal was ascertained by agglutination of trypsinized rabbit erythrocytes.

Experiment [2] has as its system trypsinized rabbit erythrocytes. Put plainly: Agglutination of trypsinized rabbit erythrocytes. The following applies: control, FIG. 5. Format: cell-based.
Text: as §1

Experiment [3] concerns the target epitope recognized by M3 antibody on human blood cells (macrophages) (human). Put plainly: flow cytometry of human blood cells pretreated with lectin, then stained with fluoresceinated M3 antibody, against untreated control.
For experiment [4], the target named is epitope recognized by M1 antibody on human blood cells (macrophages) (human). The experiment can be described thus: flow cytometry of human blood cells pretreated with lectin, then stained with fluoresceinated M1 antibody, against untreated control.

T1 sequence (P09382 2-135 limits assumed): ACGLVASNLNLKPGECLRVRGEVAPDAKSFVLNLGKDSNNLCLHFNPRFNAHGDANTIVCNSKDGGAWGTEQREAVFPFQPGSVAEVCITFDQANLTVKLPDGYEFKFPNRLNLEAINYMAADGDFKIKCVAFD

Regarding `OC[C@H]1O[C@@H](S[C@@H]2O[C@H](CO)[C@H](O)[C@H](O)[C@H]2O)[C@H](O)[C@@H](O)[C@H]1O` [Thiodigalactoside, thiodigalactoside], in experiment [1], the “concentrations inhibiting agglutination of the erythrocytes” value is “greater than 0.31 mM”.
On to `OC[C@H]1O[C@@H](O[C@H]2[C@H](O)[C@@H](O)[C@H](O)O[C@@H]2CO)[C@H](O)[C@@H](O)[C@H]1O` [β-lactose], for which the “concentrations inhibiting agglutination of the erythrocytes” value in experiment [1] is listed as “greater than 1.25 mM”.
As for Concanavalin A, the agglutination end-point in experiment [2] came to 1.5 µg/mL.
Regarding “recombinant 14 kD beta-galactoside-binding soluble lectin (HL-60 / placenta lectin) produced in E. coli (from UniProt P09382 2-135)”, the reduction of the percent of positive cells in experiment [3] was 26%; in experiment [4], 33%.

(Values after patent publication US6406679B1, “Use of HL-60-related lectins in drug delivery and detection of lectin-expressing cells” (Incyte Pharmaceuticals, Inc., priority 1992, dated 2002).)
